Measured values published in patent US8173665B2, “I-pheny 1-3,4-dihydropyrimidin-2(1H)-one derivatives and their use” (Bayer Pharma Aktiengesellschaft, priority 2002, dated 2012).

Target: T1, human neutrophil elastase (HNE) (Homo sapiens, UniProt P08246)
T1 construct: purchased SERVA Electrophoresis GmbH, Heidelberg, Germany #20927.01
T1 sequence (P08246 30-267): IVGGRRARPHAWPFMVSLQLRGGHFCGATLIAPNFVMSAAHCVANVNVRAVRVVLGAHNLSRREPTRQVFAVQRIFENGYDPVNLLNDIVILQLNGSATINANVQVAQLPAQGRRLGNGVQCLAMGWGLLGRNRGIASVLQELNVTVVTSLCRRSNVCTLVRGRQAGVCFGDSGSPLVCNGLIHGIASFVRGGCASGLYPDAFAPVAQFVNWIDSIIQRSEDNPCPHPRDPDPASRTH
Assay: In vitro inhibition of HNE using a fluorogenic peptide substrate (MeOSuc-Ala-Ala-Pro-Val-AMC)
Assay type: biochemical
Conditions: 384 MTP format
Protocol: I. In Vitro Enzyme Assays of Human Neutrophil Elastase (HNE) assay buffer: 0.1 M HEPES-NaOH buffer pH 7.4, 0.5 M NaCl, 0.1% (w/v) bovine serum albumin; suitable concentration (see below) of HNE (18 U/mg lyophil., #20927.01, SERVA Electrophoresis GmbH, Heidelberg, Germany) in assay buffer; suitable concentration (see below) of substrate in assay buffer; suitable concentration of test compounds diluted with assay buffer from a 10 mM stock solution in DMSO.
In Vitro Inhibition of HNE Using a Fluorogenic Peptide Substrate
Continuous Read-Out Signal, 384 MTP Assay Format
In this protocol, the elastase substrate MeOSuc-Ala-Ala-Pro-Val-AMC (#324740, Calbiochem-Novabiochem Corporation, Merck KGaA, Darmstadt, Germany) is used. The test solution is prepared by mixing 10 μl of test compound dilution, 20 μl of HNE enzyme dilution (final concentration 8-0.4 μU/ml, routinely 2.1 μU/ml) and 20 μl of substrate dilution (final concentration 1 mM-1 μM, routinely 20 μM), respectively. The solution is incubated for 0-2 hrs at 37° C. (routinely one hour). The fluorescence of the liberated AMC due to the enzymatic reaction is measured at 37° C. (TECAN spectra fluor plus plate reader). The rate of increase of the fluorescence (ex. 395 nm, em. 460 nm) is proportional to elastase activity. IC50 values are determined by RFU-versus-[I] plots. Km and Km(app.) values are determined by Lineweaver-Burk plots and converted to Ki values by Dixon plots.

Compound	IC50
CCOC(=O)C1=C(C)N(c2cccc(C(F)(F)F)c2)C(=S)NC1c1ccc(C#N)cc1 (stereo not shown) [Example 3, Ethyl 4-(4-cyanophenyl)-6-methyl-2-thioxo-1-[3-(trifluoromethyl)phenyl]-1,2,3,4-tetrahydro-5-pyrimidinecarboxylate]	9 nM
CC1=C(C(N)=O)C(c2ccc(C#N)cc2)NC(=S)N1c1cccc(C(F)(F)F)c1 (stereo not shown) [Example 4, 4-(4-Cyanophenyl)-6-methyl-2-thioxo-1-[3-(trifluoromethyl)phenyl]-1,2,3,4-tetrahydro-5-pyrimidinecarboxamide]	23 nM
CCOC(=O)C1=C(C)N(c2cccc(C(F)(F)F)c2)C(SCc2ccncc2)=NC1c1ccc(C#N)cc1 (stereo not shown) [Example 12, Ethyl 4-(4-cyanophenyl)-6-methyl-2-[(4-pyridinylmethyl)sulfanyl]-1-[3-(trifluoromethyl)phenyl]-1,4-dihydro-5-pyrimidinecarboxylate]	100 nM
CCOC(=O)C1=C(C)N(c2cccc(C(F)(F)F)c2)C(SCCN(CC)CC)=NC1c1ccc(C#N)cc1 (stereo not shown) [Example 14, Ethyl 4-(4-cyanophenyl)-2-{[2-(diethylamino)ethyl]sulfanyl}-6-methyl-1-[3-(trifluoromethyl)phenyl]-1,4-dihydro-5-pyrimidinecarboxylate]	10 nM
CC1=C(C(=O)O)C(c2ccc(C#N)cc2)NC(=S)N1c1cccc(C(F)(F)F)c1 (stereo not shown) [Example 19, 4-(4-Cyanophenyl)-6-methyl-2-thioxo-1-[3-(trifluoromethyl)phenyl]-1,2,3,4-tetrahydropyrimidine-5-carboxylic acid]	30 nM
CCOC(=O)C1=C(C)N(c2cccc(C(F)(F)F)c2)C(SC)=NC1c1ccc(C#N)cc1C (stereo not shown) [Example 31, Ethyl 4-(4-cyano-2-methylphenyl)-6-methyl-2-(methylsulfanyl)-1-[3-(trifluoromethyl)phenyl]-1,4-dihydro-5-pyrimidinecarboxylate]	80 nM
CCN(CC)CCOC(=O)C1=C(C)N(c2cccc(C(F)(F)F)c2)C(SC)=NC1c1ccc(C#N)cc1 (stereo not shown) [Example 58, 2-(Diethylamino)ethyl 4-(4-cyanophenyl)-6-methyl-2-(methylsulfanyl)-1-[3-(trifluoromethyl)phenyl]-1,4-dihydro-5-pyrimidinecarboxylate]	12 nM

Continued, values first:

IC50	Compound
13 nM	CC(=O)C1=C(C)N(c2cccc(C(F)(F)F)c2)C(=S)NC1c1ccc(C#N)cc1 (stereo not shown) [Example 1, 4-{5-Acetyl-6-methyl-2-thioxo-1-[3-(trifluoromethyl)phenyl]-1,2,3,4-tetrahydro-4-pyrimidinyl}benzonitrile]
70 nM	CC1=C(C(=O)N(C)C)C(c2ccc(C#N)cc2)NC(=S)N1c1cccc(C(F)(F)F)c1 (stereo not shown) [Example 6, 4-(4-Cyanophenyl)-N,N,6-trimethyl-2-thioxo-1-[3-(trifluoromethyl)phenyl]-1,2,3,4-tetrahydro-5-pyrimidinecarboxamide]
10 nM	CCOC(=O)C1=C(C)N(c2cccc(C(F)(F)F)c2)C(SC)=NC1c1ccc(C#N)cc1 (stereo not shown) [Example 7]
40 nM	CCOC(=O)C1=C(C)N(c2cccc(C(F)(F)F)c2)C(SCC)=NC1c1ccc(C#N)cc1 (stereo not shown) [Example 9]
5 nM	CCOC(=O)C1=C(C)N(c2cccc(C(F)(F)F)c2)C(SCc2ncc[nH]2)=NC1c1ccc(C#N)cc1 (stereo not shown) [Example 15, Ethyl 4-(4-cyanophenyl)-2-[(1H-imidazol-2-ylmethyl)sulfanyl]-6-methyl-1-[3-(trifluoromethyl)phenyl]-1,4-dihydro-5-pyrimidinecarboxylate]
10 nM	CCOC(=O)C1=C(C)N(c2cccc(C(F)(F)F)c2)C(=S)N(C(=O)C2CCC2)C1c1ccc(C#N)cc1 (stereo not shown) [Example 29]
20 nM	CCOC(=O)C1=C(C)N(c2cccc(Cl)c2)C(SCCCOC(N)=O)=NC1c1ccc(C#N)cc1 (stereo not shown) [Example 33]

Test system: human polymorphonuclear cells (PMNs)
Assay: In vitro PMN elastolysis assay (3H-elastin)
Assay type: cell-based
Conditions: at 1.2 μM; n=3 different donors at 3.6×10^5 cells per well
Protocol: In Vitro PMN Elastolysis Assay
This assay is used to determine the elastolytic potential of human polymorphonuclear cells (PMNs) and assess the proportion of degradation due to neutrophil elastase [cf. Z. W. She et al., Am. J. Respir. Cell. Mol. Biol. 9, 386-392 (1993)].
Tritiated elastin, in suspension, is coated on to a 96 well plate at 10 μg per well. Test and reference [ZD-0892 (J. Med. Chem. 40, 1876-1885, 3173-3181 (1997), WO 95/21855) and α1 protease inhibitor (α1PI)] compounds are added to the wells at the appropriate concentrations. Human PMNs are separated from peripheral venous blood of healthy donors and resuspended in culture media. The neutrophils are added to the coated wells at concentrations ranging between 1×10^6 to 1×10^5 cells per well. Porcine pancreatic elastase (1.3 μM) is used as a positive control for the assay, and α1PI (1.2 μM) is used as the positive inhibitor of neutrophil elastase. The cellular control is PMNs without compound at each appropriate cell density. The cells plus compounds are incubated in a humidified incubator at 37° C. for 4 hours. The plates are centrifuged to allow the harvest of cell supernatant only. […] The plates are dried until no liquid is visible in the wells and read in a beta counter for 3 minutes per well. […]
The compounds of this invention are evaluated for their inhibitory activity in this HNE-dependent model of neutrophil elastolysis.

Compound	inhibition of elastolysis (mean±s.e.m.)
α1PI: α1 protease inhibitor, used as the positive inhibitor of neutrophil elastase	83.46±3.97%

Same assay, conditions: n=2 different donors at 3.6×10^5 cells per well; read-out: IC50 (mean±s.e.m.)

IC50	Compound
45.5 ± 7.75 nM	COc1ccc(C(=O)N[C@H](C(=O)N2CCC[C@H]2C(=O)N[C@H](C(=O)C(F)(F)F)C(C)C)C(C)C)cc1 [ZD-0892]
